Experimental data from patent US10723741B1, “DNA polymerase IIIC inhibitors and use thereof” (Acurx Pharmaceuticals, LLC, priority 2018, dated 2020).
Converted amounts (≈) assume the structure as drawn. Where two headings read alike, the source gives them in different places.

Experiments:
Assay type in all cases: cell-based
[1] = test system: Staphylococcus aureus NRS384 (MRSA); experiment: Broth microdilution MIC, S. aureus NRS384 (MRSA); details: Staphylococcus aureus, read-out: MIC NRS 384 (MRSA)
Outline: (§1)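 Broth microdilution in strain-specific test medium with ~5.0×10^5 cfu/ml inoculum, 1% DMSO and two-fold compound dilutions from 64 to 0.0625 μg/ml. Plates were held 20 hours at 37° C in ambient air. S. pneumoniae colonies were grown beforehand on blood agar in 5% CO2.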

[2] = test system: Staphylococcus aureus ATCC 29213 (MSSA); experiment: Broth microdilution MIC, S. aureus ATCC 29213 (MSSA); details: read-out: MIC S. aureus ATCC 29213 (MSSA)
Outline: as §1

[3] = test system: Enterococcus faecalis ATCC 29212; experiment: Broth microdilution MIC, E. faecalis ATCC 29212; details: read-out: MIC E. faecalis ATCC 29212
Outline: as §1

[4] = test system: Enterococcus faecium ATCC 700221 (VRE); experiment: Broth microdilution MIC, E. faecium ATCC 700221 (VRE); details: Enterococcus faecium, read-out: MIC E. faecium ATCC 700221 (VRE)
Outline: as §1

[5] = test system: Streptococcus pneumoniae ATCC 49619; experiment: Broth microdilution MIC, S. pneumoniae ATCC 49619; details: read-out: MIC S. pneumoniae ATCC 49619
Outline: as §1

[6] = test system: Bacillus subtilis ATCC 6633; experiment: Broth microdilution MIC, B. subtilis ATCC 6633; details: read-out: MIC B. subtilis ATCC 6633
Outline: as §1

[7] = test system: Escherichia coli ATCC 25922; experiment: Broth microdilution MIC, E. coli ATCC 25922 (MHIIB w & w/o 4 mM EDTA); details: for MIC: Escherichia coli, read-out: MIC E. coli ATCC 25922; for MIC E. coli ATCC 25922 + 4 mM EDTA: with 4 mM EDTA
Outline: as §1

[8] = broth microdilution, 37° C., 20 hours
[9] = ATCC29212, broth microdilution, 37° C., 20 hours
[10] = ATCC49619, broth microdilution, 37° C., 20 hours
[11] = ATCC6633, broth microdilution, 37° C., 20 hours
[12] = ATCC25922, without EDTA, broth microdilution, 37° C., 20 hours

| MIC [1, 8] | MIC [2, 8] | MIC [3, 9] | MIC [4, 8] | MIC [5, 10] | MIC [6, 11] | MIC [7, 12] | MIC E. coli ATCC 25922 + 4 mM EDTA [7, 8] | SMILES | MIC ([1]; 20 h) | MIC ([2]; 20 h) | MIC ([3]; ATCC29212, 20 h) | MIC ([4]; 20 h) | MIC ([5]; ATCC49619, 20 h) | MIC ([6]; ATCC6633, 20 h) | MIC ([7]; ATCC25922, 20 h) |
| --- | --- | --- | --- | --- | --- | --- | --- | --- | --- | --- | --- | --- | --- | --- | --- |
| 4 µg/mL | 8 µg/mL | 8 µg/mL | 2 µg/mL | 4 µg/mL | 2 µg/mL | > 64 µg/mL | 64 µg/mL | CN1CCOC(Cn2ncc3nc(NCc4ccc(Cl)c(Cl)c4)[nH]c(=O)c32)C1.Cl (stereo not drawn) [Compound 147, 5-((3,4-dichlorobenzyl)amino)-1-((4-methylmorpholin-2-yl)methyl)-1H-pyrazolo[4,3-d]pyrimidin-7(6H)-one hydrochloride] | – | – | – | – | – | – | – |
| 4 µg/mL (≈ 10 µM) | 4 µg/mL (≈ 10 µM) | 4 µg/mL (≈ 10 µM) | 2 µg/mL (≈ 5.02 µM) | 2 µg/mL (≈ 5.02 µM) | 2 µg/mL (≈ 5.02 µM) | > 64 µg/mL | >64 µg/mL | O=c1[nH]c(NCc2ccc(Cl)c(Cl)c2)nc2cnn(CCOCCO)c12 [Compound 88, 5-((3,4-dichlorobenzyl)amino)-1-(2-(2-hydroxyethoxy)ethyl)-1H-pyrazolo[4,3-d]pyrimidin-7(6H)-one] | – | – | – | – | – | – | – |
| 32 µg/mL (≈ 77.6 µM) | 32 µg/mL (≈ 77.6 µM) | 32 µg/mL (≈ 77.6 µM) | 16 µg/mL (≈ 38.8 µM) | 16 µg/mL (≈ 38.8 µM) | 16 µg/mL (≈ 38.8 µM) | > 64 µg/mL | >64 µg/mL | COCCOCCn1cc2nc(NCc3ccc(Cl)c(Cl)c3)[nH]c(=O)c2n1 [Compound 137, 5-((3,4-Dichlorobenzyl)amino)-2-(2-(2-methoxyethoxy)ethyl)-2H-pyrazolo[4,3-d]pyrimidin-7(6H)-one] | – | – | – | – | – | – | – |
| > 64 µg/mL | > 64 µg/mL | > 64 µg/mL | > 64 µg/mL | 32 µg/mL (≈ 80.8 µM) | > 64 µg/mL | > 64 µg/mL | >64 µg/mL | COC(=O)C(C)n1cc2nc(NCc3ccc(Cl)c(Cl)c3)[nH]c(=O)c2n1 (stereo not drawn) [Compound 224, Methyl 2-(5-((3,4-dichlorobenzyl)amino)-7-oxo-6,7-dihydro-2H-pyrazolo[4,3-d]pyrimidin-2-yl)propanoate] | – | – | – | – | – | – | – |
| 16 µg/mL (≈ 36.3 µM) | 16 µg/mL (≈ 36.3 µM) | 8 µg/mL (≈ 18.2 µM) | 4 µg/mL (≈ 9.08 µM) | 8 µg/mL (≈ 18.2 µM) | 2 µg/mL (≈ 4.54 µM) | > 64 µg/mL | >64 µg/mL | O=c1[nH]c(NCc2ccc(Cl)c(Cl)c2)nc2cnn(C[C@@H]3CO[C@H](CO)CO3)c12 [Compound 208, 5-((3,4-dichlorobenzyl)amino)-1-(((2R,5R)-5-(hydroxymethyl)-1,4-dioxan-2-yl)methyl)-1H-pyrazolo[4,3-d]pyrimidin-7(6H)-one] | – | – | – | – | – | – | – |
| 32 µg/mL (≈ 70.6 µM) | 32 µg/mL (≈ 70.6 µM) | 32 µg/mL (≈ 70.6 µM) | 16 µg/mL (≈ 35.3 µM) | 16 µg/mL (≈ 35.3 µM) | 8 µg/mL (≈ 17.6 µM) | > 64 µg/mL | >64 µg/mL | O=c1[nH]c(NCc2ccc(Cl)c(Cl)c2)nc2cnn(CC(CO)N3CCOCC3)c12 (stereo not drawn) [Compound 288, 5-[(3,4-dichlorophenyl)methylamino]-1-(3-hydroxy-2-morpholino-propyl)-6H-pyrazolo[4,3-d]pyrimidin-7-one] | – | – | – | – | – | – | – |
| 32 µg/mL (≈ 86.9 µM) | 32 µg/mL (≈ 86.9 µM) | 32 µg/mL (≈ 86.9 µM) | 32 µg/mL (≈ 86.9 µM) | 16 µg/mL (≈ 43.5 µM) | 16 µg/mL (≈ 43.5 µM) | > 64 µg/mL | >64 µg/mL | COCCn1cc2nc(NCc3ccc(Cl)c(Cl)c3)[nH]c(=O)c2n1 [Compound 128, 5-((3,4-Dichlorobenzyl)amino)-2-(2-methoxyethyl)-2H-pyrazolo[4,3-d]pyrimidin-7(6H)-one] | – | – | – | – | – | – | – |
| 16 µg/mL | 16 µg/mL | 16 µg/mL | 16 µg/mL | 8 µg/mL | 4 µg/mL | > 64 µg/mL | 64 µg/mL | Cl.Cl.O=c1[nH]c(NCc2ccc(Cl)c(Cl)c2)nc2cnn(C3CCN(CC4CCCNC4)CC3)c12 (stereo not drawn) [Compound 251, 5-((3,4-dichlorobenzyl)amino)-1-(1-(piperidin-3-ylmethyl)piperidin-4-yl)-1H-pyrazolo[4,3-d]pyrimidin-7(6H)-one dihydrochloride] | – | – | – | – | – | – | – |
| > 64 µg/mL | > 64 µg/mL | > 64 µg/mL | > 64 µg/mL | > 64 µg/mL | > 64 µg/mL | > 64 µg/mL | >64 µg/mL | Cn1ncc2nc(NCc3nc(Cl)c(Cl)[nH]3)[nH]c(=O)c21 [Compound 37, 5-(((4,5-Dichloro-1H-imidazol-2-yl)methyl)amino)-1-methyl-1H-pyrazolo[4,3-d]pyrimidin-7(6H)-one] | – | – | – | – | – | – | – |
| 16 µg/mL | 16 µg/mL | 16 µg/mL | 8 µg/mL | 8 µg/mL | 4 µg/mL | > 64 µg/mL | >64 µg/mL | CN(C)CC1CN(CCn2ncc3nc(NCc4ccc(Cl)c(Cl)c4)[nH]c(=O)c32)CCO1.Cl.Cl (stereo not drawn) [Compound 73, 5-((3,4-Dichlorobenzyl)amino)-1-(2-(2-((dimethylamino)methyl)morpholino)ethyl)-1H-pyrazolo[4,3-d]pyrimidin-7(6H)-one dihydrochloride] | – | – | – | – | – | – | – |
| 2 µg/mL (≈ 4.91 µM) | 4 µg/mL (≈ 9.82 µM) | 4 µg/mL (≈ 9.82 µM) | 2 µg/mL (≈ 4.91 µM) | 4 µg/mL (≈ 9.82 µM) | 1 µg/mL (≈ 2.46 µM) | > 64 µg/mL | 32 µg/mL | O=c1[nH]c(NCc2ccc(Cl)c(Cl)c2)nc2cnn(Cc3nccs3)c12 [Compound 91, 5-((3,4-Dichlorobenzyl)amino)-1-(thiazol-2-ylmethyl)-1H-pyrazolo[4,3-d]pyrimidin-7(6H)-one] | – | – | – | – | – | – | – |
| 8 µg/mL (≈ 26 µM) | 8 µg/mL (≈ 26 µM) | 16 µg/mL (≈ 52 µM) | 8 µg/mL (≈ 26 µM) | 4 µg/mL (≈ 13 µM) | 4 µg/mL (≈ 13 µM) | > 64 µg/mL | 32 µg/mL | Cn1ncc2nc(NCc3ccc(Cl)c(F)c3)[nH]c(=O)c21 [Compound 1, 5-((4-chloro-3-fluorobenzyl)amino)-1-methyl-1H-pyrazolo[4,3-d]pyrimidin-7(6H)-one] | – | – | – | – | – | – | – |
| 8 µg/mL (≈ 16.7 µM) | 8 µg/mL (≈ 16.7 µM) | > 64 µg/mL | 4 µg/mL (≈ 8.34 µM) | 16 µg/mL (≈ 33.4 µM) | 2 µg/mL (≈ 4.17 µM) | > 64 µg/mL | >64 µg/mL | CC(C)(C)OC(=O)N1CCC(n2ncc3nc(NCc4ccc(Cl)c(Cl)c4)[nH]c(=O)c32)C1 (stereo not drawn) [Compound 98, tert-Butyl 3-(5-((3,4-dichlorobenzyl)amino)-7-oxo-6,7-dihydro-1H-pyrazolo[4,3-d]pyrimidin-1-yl)pyrrolidine-1-carboxylate] | – | – | – | – | – | – | – |
| 8 µg/mL (≈ 19.4 µM) | 8 µg/mL (≈ 19.4 µM) | 8 µg/mL (≈ 19.4 µM) | 4 µg/mL (≈ 9.7 µM) | 8 µg/mL (≈ 19.4 µM) | 2 µg/mL (≈ 4.85 µM) | > 64 µg/mL | >64 µg/mL | O=c1[nH]c(NCc2ccc(Cl)c(Cl)c2)nc2cnn(CCCOCCO)c12 [Compound 169, 5-[(3,4-dichlorophenyl)methylamino]-1-[3-(2-hydroxyethoxy)propyl]-6H-pyrazolo[4,3-d]pyrimidin-7-one] | – | – | – | – | – | – | – |

| SMILES | MIC [1, 8] | MIC [2, 8] | MIC [3, 9] | MIC [4, 8] | MIC [5, 10] | MIC [6, 11] | MIC [7, 12] | MIC E. coli ATCC 25922 + 4 mM EDTA [7, 8] | MIC ([1]; 20 h) | MIC ([2]; 20 h) | MIC ([3]; ATCC29212, 20 h) | MIC ([4]; 20 h) | MIC ([5]; ATCC49619, 20 h) | MIC ([6]; ATCC6633, 20 h) | MIC ([7]; ATCC25922, 20 h) |
| --- | --- | --- | --- | --- | --- | --- | --- | --- | --- | --- | --- | --- | --- | --- | --- |
| CC(C)(C)OC(=O)N1C[C@H](O)C[C@H]1C(=O)N1CCC(n2ncc3nc(NCc4ccc(Cl)c(Cl)c4)[nH]c(=O)c32)CC1 [Compound 275, (2S,4R)-tert-Butyl 2-(4-(5-((3,4-dichlorobenzyl)amino)-7-oxo-6,7-dihydro-1H-pyrazolo[4,3-d]pyrimidin-1-yl)piperidine-1-carbonyl)-4-hydroxypyrrolidine-1-carboxylate] | – | – | – | – | – | – | – | >64 µg/mL | 32 µg/mL (≈ 52.8 µM) | 32 µg/mL (≈ 52.8 µM) | 16 µg/mL (≈ 26.4 µM) | 8 µg/mL (≈ 13.2 µM) | 8 µg/mL (≈ 13.2 µM) | 8 µg/mL (≈ 13.2 µM) | > 64 µg/mL |
